Experimental data published in patent publication US6011000A, “Compositions for the treatment of blood disorders” (priority 1995, dated 2000).

Columns and labels:
[1] = tested on: γ globin mRNA of bone marrow cells; conditions: cited from earlier work
[2] = tested on: fetal reticulocyte production; conditions: cited from earlier work
globin expression = conditions: cited from earlier work
[3] = tested on: erythroid cells (peripheral blood); assay: Erythroid cell viability by fluorescent staining (Calcein-AM), FIG. 2; assay type: cell-based, human; conditions: 0.5 mM, vs untreated controls
Method: FIG. 2 Peripheral blood cell viability after incubation with arginine butyrate, dihydrocinnamic acid, phenoxyacetic acid and butyric acid ethyl ester.
Compositions were tested for the ability to directly stimulate erythroid cell growth. Cell growth stimulation is a useful property for an agent to be used to treat anemias and distinguishes such agents from the cytotoxic drugs currently being tested for treatment of hemoglobinopathies. Cell viability analyses were performed using fluorescent staining to detect living cells. Cells were in log phase of growth in 6-well dishes when used in proliferation assays. For enumeration of living cells, wells were washed once with medium to remove nonadherent or dead cells. Remaining live cells were labeled with 2 μM 2',7'-bis-(carboxyethyl)-5-(and 6)-carboxy-fluorescein acetoxy-methyl ester (Calcein-AM) (Molecular Probes; Eugene, Oreg.) for 20 minutes at 37° C. and washed once. Fluorescence intensity of live cells was read on a CytoFluor 2300 Fluorescence Plate Scanner (Millipore; Bedford, Mass.) at excitation and emission wavelengths of 485 and 530 nm, respectively. The fluorescence intensity of a well was proportional to the number of living cells in the well. Background fluorescence was measured separately for each plate and subtracted from all readings. Each experiment was performed in triplicate or quadruplicate. The standard deviation (SD) of repetitive readings was less than 30% of the mean. Results are depicted in FIG. 2.

human erythroid cells = assay: DNA fragmentation by flow cytometry (degradation of DNA); assay type: cell-based
Method: Such activities might limit their utility for treatment of anemias such as occur in thalassemia, but alternatively would be useful for anticancer effects. To determine cell viability, human erythroid cells were cultured in the presence and absence of these compounds for 4 days and the amount of DNA fragmentation which occurred was measured.
Flow cytometric determination of DNA profiles and DNA fragmentation were determined. Cytometric analysis was performed with a FACScan (Becton Dickenson Instruments; Columbia, Md.). The data analysis and display were performed using the Cell-Fit software program. Approximately 0.5×10^6 cells were washed twice with PBS and resuspended in 1 ml of 1% sodium citrate, 0.1% Triton X-100 and 50 μg of propidium iodide/ml. Resulting permeabilized cells were kept in the dark at 4° C. overnight before DNA profile or DNA fragmentation analysis (Table 4).

[4] = Hemoglobin and red blood cell levels in a patient with thalassemia intermedia; assay type: in vivo, human; set-up: Hgb-A1 / Hgb-A2 / HbF: unit not given here; conditions: for RBC: 50 mg/kg 3 days/week
Method: This patient received isobutyramide at 50 mg/kg for 3 days/week over the course of the study.

MCF-7 cells = assay: Growth/viability of human mammary carcinoma cells; assay type: cell-based; conditions: MCF7, 96 h, 1.0 mM, 4 days, read-out: growth decrease of MCF-7 cells
Method: Human mammary carcinoma cells (MCF-7) were cultured alone (controls) and with arginine butyrate or isobutyramide for 4 days. Viability was assayed by FACS after incubation with a fluorescent dye taken up by viable cells (FIG. 6). Growth was decreased by 50% with isobutyramide at 1.0 mM, about 60% with arginine butyrate at 0.5 mM, and greater than 90% with arginine butyrate at 1.0 mM.

[5] = tested on: system A transport (K562 cells and nucleated erythroblasts from fetal liver); assay: Effects on system A amino acid transport (3H-MAIB uptake); assay type: cell-based, human
Method: Inhibition of nutrient uptake is undesirable for treatment of anemias. Methyl aminoisobutyric acid (MAIB) labeled with tritium (^3 H) is normally taken up by system A amino acid transport. Cold (unlabeled) compounds were added to cultures containing ^3 H-MAIB and incubated for 1 hour. Cells were harvested and the amount of ^3 H taken up by cells was quantitated by scintillation counting.

[6] = tested on: γ-globin promoter (-61 construct, K562 cells); assay type: cell-based, human
From the text: Functional assay underscores the important role of FRE-γ1 in γ-globin gene expression in K562 cells. To ascertain whether the FRE elements of the γ-globin promoter that were identified by in vivo footprinting were indeed involved in arginine butyrate inducibility for γ-globin gene expression, a series of 5' deletion constructs of the γ-globin promoter, extending from -256 to -61, were constructed and linked them to the NEO gene. Activity of the NEO gene of these constructs, in response to arginine butyrate treatment, was examined by transfecting these reporters into K562 cells. In K562 cells, a construct driven by 256 bp of promoter was able to direct NEO activity expression, resulting in colony formation. […] Deletion to position -61 reduced promoter activity to 33-40% of the activity seen with the -256 bp construct.

fetal globin production = conditions: cited from earlier work
Friend leukemia cells = conditions: cited from earlier work
fetal globin synthesis = conditions: cited from earlier work
[7] = tested on: fetal globin expression in K562 human erythroleukemia cells; conditions: cited from earlier work
[8] = tested on: fetal globin synthesis in tissue culture cells; conditions: cited from earlier work
[9] = tested on: cultured human erythrocytes; conditions: cited from earlier work
[10] = 50 mg/kg, 3 days/week, four month study

Nc1ncn([C@@H]2O[C@H](CO)[C@@H](O)[C@H]2O)c(=O)n1 [AZA, 5-azacytidine]
increase in γ globin mRNA of bone marrow cells ([1]; continuous intravenous): five- to seven-fold increase
population of stem cells in the bone marrow ([1]; in vivo): significant alterations in the population of stem cells in the bone marrow

Nc1ccn([C@@H]2O[C@H](CO)[C@@H](O)[C@@H]2O)c(=O)n1 [AraC, cytosine arabinoside]
fetal reticulocyte production [2]: induces fetal reticulocyte production

NC(=O)NO [Hydroxyurea]
specificity to fetal globin (globin expression): did not appear to be very specific to fetal globin

CC(C)C(N)=O [IBT, isobutyramide]
erythroid cell growth and proliferation [3]: either had no effect or stimulated erythroid cell growth and proliferation
proportion of degraded DNA (human erythroid cells; 1.0 mM to 2.0 mM, untreated 26%): 44%
Degraded DNA (human erythroid cells; 2.0 mM, 4 days, control 26%, 22%): 34%
DNA fragmentation / cell viability / DNA integrity (human erythroid cells; DNA fragmentation assays): decrease cell viability
rise in hematocrit (Hct) [4, 10]: 5.8%
rise in hemoglobin (Hgb) [4, 10]: 1.6 g/dL
rise in reticulocytes (Retics) [4, 10]: about 50%
rise in total red blood cells (RBC) [4, 10]: ~10^6 /μl
total red blood cells (RBC) at end ([4]; 50 mg/kg, 3 days/week, four month study, from 6.48): 7.3 10^6 cells/μl
hemoglobin (Hgb) at end ([4]; 50 mg/kg, 3 days/week, four month study, from 10.1): 11.7 g/dL
hematocrit (Hct) at end ([4]; 50 mg/kg, 3 days/week, four month study, from 31.0%): 36.9%
HbF ([4]; Day 1): 4.4
Hct ([4]; Day 1): 31.1%
Hgb ([4]; Day 1): 10.1 g/dL
Hgb-A1 ([4]; Day 1): 89.2
Hgb-A2 ([4]; Day 1): 6.4
RBC ([4]; Day 1): 6.48 10^6 cells/μl
HbF ([4]; Day 8): 6.4
Hct ([4]; Day 8): 36.2%
Hgb ([4]; Day 8): 10.8 g/dL
Hgb-A1 ([4]; Day 8): 89.2
Hgb-A2 ([4]; Day 8): 6.2
RBC ([4]; Day 8): 6.76 10^6 cells/μl
HbF ([4]; Day 15): 4.4
Hct ([4]; Day 15): 37.0%
Hgb ([4]; Day 15): 11.1 g/dL
Hgb-A1 ([4]; Day 15): 89.2
Hgb-A2 ([4]; Day 15): 6.4
RBC ([4]; Day 15): 6.89 10^6 cells/μl
HbF ([4]; Day 22): 0.4
Hct ([4]; Day 22): 34.1%
Hgb ([4]; Day 22): 10.3 g/dL
Hgb-A1 ([4]; Day 22): 89.1
Hgb-A2 ([4]; Day 22): 6.9
RBC ([4]; Day 22): 6.28 10^6 cells/μl
HbF ([4]; Day 29): 4.4
Hct ([4]; Day 29): 36.3%
Hgb ([4]; Day 29): 10.9 g/dL
Hgb-A1 ([4]; Day 29): 88.6
Hgb-A2 ([4]; Day 29): 7.0
RBC ([4]; Day 29): 6.61 10^6 cells/μl
HbF ([4]; Day 36): 0.4
Hct ([4]; Day 36): 33.8%
Hgb ([4]; Day 36): 10.4 g/dL
Hgb-A1 ([4]; Day 36): 88.4
Hgb-A2 ([4]; Day 36): 7.6
RBC ([4]; Day 36): 6.28 10^6 cells/μl
HbF ([4]; Day 43): 8.4
Hct ([4]; Day 43): 36.2%
Hgb ([4]; Day 43): 11.0 g/dL
Hgb-A1 ([4]; Day 43): 88.7
Hgb-A2 ([4]; Day 43): 6.5
RBC ([4]; Day 43): 6.38 10^6 cells/μl
HbF ([4]; Day 55): 5.4
Hct ([4]; Day 55): 34.0%
Hgb ([4]; Day 55): 11.4 g/dL
RBC ([4]; Day 55): 6.68 10^6 cells/μl
HbF ([4]; Day 68): 1.4
Hct ([4]; Day 68): 36.4%
Hgb ([4]; Day 68): 11.5 g/dL
RBC ([4]; Day 68): 6.68 10^6 cells/μl
Hct ([4]; Day 96): 36.9%
Hgb ([4]; Day 96): 11.7 g/dL
RBC ([4]; Day 96): 7.33 10^6 cells/μl
fetal globin (HbF) ([4]; four month study): lack of increased fetal globin (HbF)
Hemoglobin-A1 level ([4]; throughout the study): approximately constant
hemoglobin-A2 level ([4]; throughout the study): approximately constant
inhibition at 1000 µM (MCF-7 cells): 50%
system A (neutral) amino acid transport [5]: inhibited the neutral amino acid transport mechanism
induction of construct activity [6]: 2.5-4 fold
stimulation of fetal globin production (fetal globin production): effective in stimulating fetal globin production

CC(=O)O [acetate]
hemoglobin synthesis (Friend leukemia cells): induced hemoglobin synthesis
duration of positive effects (fetal globin synthesis): positive effects could only be maintained for very short periods of time
erythrocyte precursor populations and fetal globin synthesis (fetal globin synthesis): increased both erythrocyte precursor populations and also fetal globin synthesis

CCC(=O)O [propionate]
hemoglobin synthesis (Friend leukemia cells): induced hemoglobin synthesis
increase of fetal globin expression [7]: most effective

GM-CSF: granulocyte/macrophage-colony stimulating factor (GM-CSF)
fetal globin synthesis [8]: increase fetal globin synthesis in tissue culture cells

B1: activin: Activin, sometimes referred to as erythroid differentiating factor (EDF) (protein, UniProt P08476 311-426, looked up)
Inhibin beta A chain: GLECDGKVNICCKKQFFVSFKDIGWNDWIIAPSGYHANYCEGECPSHIAGTSGSSLSFHSTVINHYRMRGHSPFANLKSCCVPTKLRPMSMLYYDDGQNIIKKDIQNMIVEECGCS
modifications: Inhibin beta A chain
hemoglobin accumulation [9]: induced hemoglobin accumulation in cultured human erythrocytes

B2: inhibin: Inhibin, a disulfide linked hormone of two subunits (protein, UniProt P05111 233-366; P08476 311-426, looked up)
Inhibin alpha chain: STPLMSWPWSPSALRLLQRPPEEPAAHANCHRVALNISFQELGWERWIVYPPSFIFHYCHGGCGLHIPPNLSLPVPGAPPTPAQPYSLLPGAQPCCAALPGTMRPLHVRTTSDGGYSFKYETVPNLLTQHCACI
Inhibin beta A chain: GLECDGKVNICCKKQFFVSFKDIGWNDWIIAPSGYHANYCEGECPSHIAGTSGSSLSFHSTVINHYRMRGHSPFANLKSCCVPTKLRPMSMLYYDDGQNIIKKDIQNMIVEECGCS
hemoglobin accumulation [9]: induced hemoglobin accumulation in cultured human erythrocytes
